The values that follow come from US20100119599A1 (ARCHER PHARMACEUTICALS, INC., priority 2006, published 2010).

The structures appear in SMILES notation.

One experiment concerns Aβ1-42. Briefly: Measurement of Aβ1-42 in culture medium of 7W WT APP751 CHO cells by ELISA. The following applies: Cricetulus griseus; Table 1; 5 μM test compound; CHO cells stably transfected with human APP751; culture medium, ELISA; control DMSO; 0 = no detectable amount; read-out: Aβ1-42 (% of control). The class given is cell-based, Chinese hamster.
The next experiment deals with Aβ1-40. In words: Measurement of Aβ1-40 in culture medium of 7W WT APP751 CHO cells by ELISA. In kind it is cell-based, Chinese hamster. The following applies: Cricetulus griseus; Table 1; 5 μM test compound; CHO cells stably transfected with human APP751; culture medium, ELISA; control DMSO; 0 = no detectable amount.
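Further: 5 µM test compound but RI-coded compounds at 10 µM for 24 hours.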

Take `COCCOC(=O)C1=C(C)NC2=C(C(=O)CC(c3ccc(OC)cc3)C2)C1c1ccc2c(c1)OCO2` (stereo not drawn) [ST017094, 2-methoxyethyl 4-(2H-benzo[3,4-d]1,3-dioxolen-5-yl)-7-(4-methoxyphenyl)-2-methyl-5-oxo-1,4,6,7,8-pentahydroquinoline-3-carboxylate]: the activity at 5 µM stood at 73.8% in the experiment with Aβ1-42 and 68.9% with Aβ1-40.

For `CCC(C)OC(=O)C1=C(C)NC2=C(C(=O)CC(c3ccc(Cl)cc3)C2)C1c1ccc(Cl)c(Cl)c1` (stereo not drawn) [ST017095, methylpropyl 4-(3,4-dichlorophenyl)-7-(4-chlorophenyl)-2-methyl-5-oxo-1,4,6,7,8-pentahydroquinoline-3-carboxylate], the activity at 5 µM came to 37.1% in the experiment with Aβ1-42 and 61.3% in the experiment on Aβ1-40.

With `COCCOC(=O)C1=C(C)NC2=C(C(=O)CC(c3ccc(OC)cc3)C2)C1c1cccc(OC)c1` (stereo not drawn) [ST017097, 2-methoxyethyl 4-(3-methoxyphenyl)-7-(4-methoxyphenyl)-2-methyl-5-oxo-1,4,6,7,8-pentahydroquinoline-3-carboxylate], the activity at 5 µM is 80.9% with Aβ1-42 and 68.2% in the experiment with Aβ1-40.

In the case of `COCCOC(=O)C1=C(C)NC2=C(C(=O)CC(c3ccc(OC)cc3)C2)C1c1ccc(Br)cc1` (stereo not drawn) [ST017099, 2-methoxyethyl 4-(4-bromophenyl)-7-(4-methoxyphenyl)-2-methyl-5-oxo-1,4,6,7,8-pentahydroquinoline-3-carboxylate], the results for the activity at 5 µM with Aβ1-42 and in the experiment with Aβ1-40 were 57% and 84.5%, respectively.

Turning to `CCSCCOC(=O)C1=C(C)NC2=C(C(=O)CCC2)C1c1ccc(C(=O)OC)cc1` (stereo not drawn) [ST017106, methyl 4-{3-[(2-ethylthioethyl)oxycarbonyl]-2-methyl-5-oxo-4-1,4,6,7,8-pentahydroquinolyl}benzoate], the results for the activity at 5 µM in the experiment with Aβ1-42 and in the experiment with Aβ1-40 were 0% and 36.8%, respectively.

`CCSCCOC(=O)C1=C(C)NC2=C(C(=O)CCC2)C1c1ccc(OCCO)c(OC)c1` (stereo not drawn) [ST017113, 2-ethylthioethyl 4-[4-(2-hydroxyethoxy)-3-methoxyphenyl]-2-methyl-5-oxo-1,4,6,7,8-pentahydroquinoline-3-carboxylate]: the activity at 5 µM with Aβ1-42 worked out at 74.1%; in the experiment on Aβ1-40, 82.6%.

As to `CCCOc1ccc(C2C(C(=O)OCCSCC)=C(C)NC3=C2C(=O)CC(C)(C)C3)cc1OC` (stereo not drawn) [ST017116, 2-ethylthioethyl 4-(3-methoxy-4-propoxyphenyl)-2,7,7-trimethyl-5-oxo-1,4,6,7,8-pentahydroquinoline-3-carboxylate], the results for the activity at 5 µM in the experiment on Aβ1-42 and in the experiment on Aβ1-40 were 43% and 43.5%, respectively.

Regarding `CCOc1cc(C2C(C(=O)OCC(C)C)=C(C)NC3=C2C(=O)CC(c2ccc(Cl)cc2)C3)ccc1O` (stereo not drawn) [ST017117, 2-methylpropyl 7-(4-chlorophenyl)-4-(3-ethoxy-4-hydroxyphenyl)-2-methyl-5-oxo-1,4,6,7,8-pentahydroquinoline-3-carboxylate], the activity at 5 µM in the experiment on Aβ1-42 came out at 81.7%; in the experiment with Aβ1-40 it was 25.7%.

For `COc1ccc(C2CC(=O)C3=C(C2)NC(C)=C(C(=O)OCc2ccccc2)C3c2ccc3c(c2)OCO3)cc1` (stereo not drawn) [ST017133, phenylmethyl 4-(2H-benzo[3,4-d]1,3-dioxolen-5-yl)-7-(4-methoxyphenyl)-2-methyl-5-oxo-1,4,6,7,8-pentahydroquinoline-3-carboxylate], the activity at 5 µM was 79.2% in the experiment on Aβ1-42 and 39.2% with Aβ1-40.

For `CCOC(=O)C1=C(C)NC2=C(C(=O)CC(c3ccc(OC)cc3)C2)C1c1ccc(OC)cc1` (stereo not drawn) [ST017136, ethyl 4,7-bis(4-methoxyphenyl)-2-methyl-5-oxo-1,4,6,7,8-pentahydroquinoline-3-carboxylate], the activity at 5 µM in the experiment on Aβ1-42 amounted to 66.1%; in the experiment with Aβ1-40, 87.7%.

`CCOC(=O)C1=C(C)NC2=C(C(=O)CC(c3ccc(OC)cc3)C2)C1c1cccc(Cl)c1` (stereo not drawn) [ST017144, ethyl 4-(3-chlorophenyl)-7-(4-methoxyphenyl)-2-methyl-5-oxo-1,4,6,7,8-pentahydroquinoline-3-carboxylate]: the values for the activity at 5 µM with Aβ1-42 and in the experiment with Aβ1-40 were 55.6% and 23.4%, respectively.

For the molecule `CCCCOC(=O)C1=C(C)NC2=C(C(=O)CCC2)C1c1ccc(Br)cc1` (stereo not drawn) [ST017167, butyl 4-(4-bromophenyl)-2-methyl-5-oxo-1,4,6,7,8-pentahydroquinoline-3-carboxylate], the activity at 5 µM with Aβ1-42 stood at 50.5%; in the experiment on Aβ1-40, 79%.

On to `CC1=C(C(=O)OC2CCCCC2)C(c2ccc(Br)cc2)C2=C(CCCC2=O)N1` (stereo not drawn) [ST017170, cyclohexyl 4-(4-bromophenyl)-2-methyl-5-oxo-1,4,6,7,8-pentahydroquinoline-3-carboxylate], for which the activity at 5 µM in the experiment with Aβ1-42 amounted to 1.38%; in the experiment with Aβ1-40 it was 3.47%.

With `CC1=C(C(=O)OC2CCCC2)C(c2cccs2)C2=C(CCCC2=O)N1` (stereo not drawn) [ST017171, cyclopentyl 2-methyl-5-oxo-4-(2-thienyl)-1,4,6,7,8-pentahydroquinoline-3-carboxylate], the activity at 5 µM was found to be 63.4% in the experiment on Aβ1-42 and 62.5% with Aβ1-40.

Consider `CCCCOC(=O)C1=C(C)NC2=C(C(=O)CCC2)C1c1ccc(Cl)cc1` (stereo not drawn) [ST017175, butyl 4-(4-chlorophenyl)-2-methyl-5-oxo-1,4,6,7,8-pentahydroquinoline-3-carboxylate], for which the activity at 5 µM with Aβ1-42 was determined as 34.5%; with Aβ1-40, 59.8%.

`COc1ccccc1C1C(C(=O)OC2CCCC2)=C(C)NC2=C1C(=O)CC(c1ccccc1)C2` (stereo not drawn) [ST017176, cyclopentyl 4-(2-methoxyphenyl)-2-methyl-5-oxo-7-phenyl-1,4,6,7,8-pentahydroquinoline-3-carboxylate]: the activity at 5 µM was 49.8% in the experiment on Aβ1-42 and 34.2% in the experiment with Aβ1-40.

`CCCOC(=O)C1=C(C)NC2=C(C(=O)CC(c3ccc(Cl)cc3)C2)C1c1ccc(Cl)c(Cl)c1` (stereo not drawn) [ST017183, propyl 4-(3,4-dichlorophenyl)-7-(4-chlorophenyl)-2-methyl-5-oxo-1,4,6,7,8-pentahydroquinoline-3-carboxylate]: the activity at 5 µM came to 67.9% with Aβ1-42 and 50.1% in the experiment on Aβ1-40.

Regarding `CCSCCOC(=O)C1=C(C)NC2=C(C(=O)CCC2)C1c1ccccc1Br` (stereo not drawn) [ST017199, 2-ethylthioethyl 4-(2-bromophenyl)-2-methyl-5-oxo-1,4,6,7,8-pentahydroquinoline-3-carboxylate], the values for the activity at 5 µM in the experiment with Aβ1-42 and with Aβ1-40 were 100% and 47.9%, respectively.

`CCSCCOC(=O)C1=C(C)NC2=C(C(=O)CC(c3ccccc3)C2)C1c1ccc(Br)cc1` (stereo not drawn) [ST017201, 2-ethylthioethyl 4-(4-bromophenyl)-2-methyl-5-oxo-7-phenyl-1,4,6,7,8-pentahydroquinoline-3-carboxylate]: the figures for the activity at 5 µM with Aβ1-42 and in the experiment with Aβ1-40 were 85.2% and 57.5%, respectively.

For `CC1=C(C(=O)OC(C)C)C(c2ccccc2)C2=C(CC(c3ccccc3)CC2=O)N1` (stereo not drawn) [ST017212, methylethyl 2-methyl-5-oxo-4,7-diphenyl-1,4,6,7,8-pentahydroquinoline-3-carboxylate], the activity at 5 µM was 57.1% in the experiment with Aβ1-42 and 25.4% in the experiment on Aβ1-40.

As to `CC1=C(C(=O)OC(C)C)C(c2ccc(Cl)cc2)C2=C(CC(C)(C)CC2=O)N1` (stereo not drawn) [ST017213, methylethyl 4-(4-chlorophenyl)-2,7,7-trimethyl-5-oxo-1,4,6,7,8-pentahydroquinoline-3-carboxylate], the activity at 5 µM is 91.4% in the experiment with Aβ1-42 and 44.4% in the experiment with Aβ1-40.
